What was measured:
Experiment in all cases: Resistance against lysine analogue AEC, relative growth rate in M9 minimum medium
Assay type in all cases: cell-based, Escherichia coli
[1] = test system: E. coli strain TF1; conditions: strain TE1 (so in the source), absorbance at 562 nm, relative to growth at zero AEC
Protocol: (§1) An Escherichia coli strain TF1 (Korean laid-open Patent No. 1992-0012444) was grown until the strain entered an exponential growth phase and suspended in a 0.1M phosphate buffer (pH 7.0) or 0.1M citrate buffer solution (pH 5.5). N-methyl-N′-nitro-nitrosoguanidine was added into the suspension to a final concentration of 200-500 μg/mL, reacted at 30° C. for 10-30 minutes, and inoculated into a minimum agar plate containing 1-30 g/L of a lysine analogue (AEC: S-(2-aminoethyl)-L-cysteine) to select an analogue-resistant strain. This strain was named “CJ40225”. The resistance of the strain against the lysine analogue was tested using an M9 minimum medium, and the relative growth rate was measured.
(§2) The used M9 minimum medium contained 4 g of glucose, 12.8 g of Na2HPO4.7H2O, 3 g of KH2PO4, 0.5 g of NaCl, and 1 g of NH4Cl per 1 liter of water.

[2] = test system: E. coli strain CJ40225; conditions: absorbance at 562 nm, relative to growth at zero AEC
Protocol: as §1, §2

[3] = test system: Wild type E. coli strain W3110; conditions: absorbance at 562 nm, relative to growth at zero AEC
Protocol: as §1, §2

Structure (SMILES): NCCSC[C@H](N)C(=O)O [AEC, S-(2-aminoethyl)-L-cysteine]
- Relative Growth Rate (%) ([1]; added AEC 5 g/L): 103.5%
- Relative Growth Rate (%) ([1]; added AEC 10 g/L): 128.9%
- Relative Growth Rate (%) ([1]; added AEC 20 g/L): 112.5%
- Relative Growth Rate (%) ([1]; added AEC 40 g/L): 17.5%
- Relative Growth Rate (%) ([2]; added AEC 5 g/L): 124.3%
- Relative Growth Rate (%) ([2]; added AEC 10 g/L): 88.4%
- Relative Growth Rate (%) ([2]; added AEC 20 g/L): 89.2%
- Relative Growth Rate (%) ([2]; added AEC 40 g/L): 73.9%
- Relative Growth Rate (%) ([3]; added AEC 5 g/L): 66.3%
- Relative Growth Rate (%) ([3]; added AEC 10 g/L): 39.8%
- Relative Growth Rate (%) ([3]; added AEC 20 g/L): 7.4%

Reference: US7566553B2, “Microorganism of Escherichia Sp, or Corynebacterium Sp, comprising foreign NADP dependent glyceraldehyde-3-phosphate dehydrogenase gene and method for producing L-lysine using the same” (CJ Corporation, priority 2004, dated 2009)
